From article PMC11154727, “Systematic Studies on the Anti-SARS-CoV-2 Mechanisms of Tea Polyphenol-Related Natural Products” (ACS Omega, 2024)
Read-outs that look alike come from different tables or passages of the source.

Assays:
cathepsin L = biological target: T1, cathepsin L (Homo sapiens, UniProt P07711); assay: Cathepsin L inhibition (Cathepsin L Protease Assay Kit, fluorescence); format: biochemical
T1 construct: purchased Abcam
Method: Cathepsin L activity was determined using a commercial Cathepsin L Protease Assay Kit (Abcam, U.K.) in 20 μL reaction mixtures on a 384-well plate (PerkinElmer). Different concentrations of each inhibitor were added to the assay buffer supplied with dithiothreitol (DTT) in the kit, also containing 1% DMSO from the stock solutions of inhibitors. The fluorescence intensity was monitored for 30 min at excitation and emission wavelengths of 380/460 nm. The concentration-dependent inhibition curves of cathepsin L were fitted with the equation A(I) = A(0) x {1–[I/(I + IC50)]} using GraphPad Prism (v.9.4.0). The measurements were performed in triplicate to generate the averaged IC50 values and the standard deviations.

furin = biological target: T2, furin (Homo sapiens, UniProt P09958); assay: Furin inhibition (Furin Protease Assay Kit, fluorescence); format: biochemical
T2 construct: purchased BPS Bioscience 78040
T2 sequence (P09958 108-794): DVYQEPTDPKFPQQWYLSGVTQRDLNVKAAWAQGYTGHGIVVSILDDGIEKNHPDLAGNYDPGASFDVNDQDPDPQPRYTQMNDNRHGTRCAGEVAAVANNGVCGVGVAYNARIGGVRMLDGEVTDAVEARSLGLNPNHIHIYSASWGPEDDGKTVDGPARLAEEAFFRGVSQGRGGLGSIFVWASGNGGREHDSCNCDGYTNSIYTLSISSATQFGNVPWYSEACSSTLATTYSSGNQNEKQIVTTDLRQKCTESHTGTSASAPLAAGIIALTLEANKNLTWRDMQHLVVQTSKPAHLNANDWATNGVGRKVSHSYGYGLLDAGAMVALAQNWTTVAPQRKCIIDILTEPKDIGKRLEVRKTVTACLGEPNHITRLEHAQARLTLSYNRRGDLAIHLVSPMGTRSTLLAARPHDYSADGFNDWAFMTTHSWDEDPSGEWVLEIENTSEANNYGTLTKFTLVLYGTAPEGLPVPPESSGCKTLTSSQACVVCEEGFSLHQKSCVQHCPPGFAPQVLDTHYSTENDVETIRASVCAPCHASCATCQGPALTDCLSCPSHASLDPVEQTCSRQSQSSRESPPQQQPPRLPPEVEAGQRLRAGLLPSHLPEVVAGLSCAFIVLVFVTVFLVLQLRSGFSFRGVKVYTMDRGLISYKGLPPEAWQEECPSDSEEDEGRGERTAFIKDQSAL
Method: Following the protocol as described in ref ([35]) a commercial Furin Protease Assay Kit (BPS Bioscience, catalog#78040) was employed to assay furin activities. It was conducted in 20 μL reaction mixtures on a 384-well plate (PerkinElmer) comprising 0.25 ng/μL furin, 2 μM substrate, and different concentrations of inhibitors in the assay buffer with 1% DMSO from the stock solutions of compounds. Fluorescence intensity was monitored at excitation/emission wavelengths of 380/460 nm. The concentration-dependent inhibition curves of furin were fitted with the equation A(I) = A(0) x {1–[I/(I + IC50)]} using GraphPad Prism (v.9.4.0). All of the measurements were performed in triplicate to determine the averaged IC50 values and the standard deviations.

TMPRSS2 = biological target: T3, TMPRSS2 (Homo sapiens, UniProt O15393); assay: TMPRSS2 inhibition (Boc-Gln-Ala-Arg-AMC fluorogenic substrate); format: biochemical
T3 construct: The recombinant TMPRSS2 ectodomain (residues 109–492), excluding the transmembrane domain; His tag; made in house; host or cells: ExpiSf9 insect cells (baculovirus)
T3 sequence (O15393 109-492 S251D/R252D/Q253D/S254D/R255K limits assumed): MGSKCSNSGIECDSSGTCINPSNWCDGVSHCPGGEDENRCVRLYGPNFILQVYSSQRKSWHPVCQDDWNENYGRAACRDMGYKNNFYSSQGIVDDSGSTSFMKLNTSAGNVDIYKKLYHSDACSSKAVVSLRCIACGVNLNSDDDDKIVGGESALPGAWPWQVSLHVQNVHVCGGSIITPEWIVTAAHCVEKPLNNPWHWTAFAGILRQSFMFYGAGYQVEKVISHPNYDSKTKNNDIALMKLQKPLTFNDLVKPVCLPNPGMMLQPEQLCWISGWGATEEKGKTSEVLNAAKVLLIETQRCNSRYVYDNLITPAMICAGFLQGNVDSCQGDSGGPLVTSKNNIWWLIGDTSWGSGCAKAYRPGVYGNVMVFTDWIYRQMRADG

SARS-CoV-2 3CL^pro = SARS-CoV-2 3CL^pro (Severe acute respiratory syndrome coronavirus 2, UniProt P0DTD1); assay: 3CLpro inhibition (fluorogenic peptide); format: biochemical
SARS-CoV-2 PL^pro = SARS-CoV-2 PL^pro (Severe acute respiratory syndrome coronavirus 2, UniProt P0DTD1); assay: PLpro inhibition (proteolytic, deubiquitinating, deISGylation activities); format: biochemical
SARS-CoV-2 RdRp = SARS-CoV-2 RdRp (Severe acute respiratory syndrome coronavirus 2, UniProt P0DTD1); assay: RdRp inhibition (nsp12/nsp7L8/nsp8 complex, ProFoldin kit); format: biochemical; conditions: triplicate
[1] = tested on: SARS-CoV-2 Delta virus (NTU92); assay: microbe, parasite or virus in culture; format: cell-based
[2] = tested on: SARS-CoV-2 Omicron BA.5 (NTU280); assay: Antiviral plaque reduction assay, Omicron BA.5 strain, Vero E6 cells; format: cell-based
[3] = Cytotoxicity, acid phosphatase (ACP) assay; format: cell-based; conditions: African green monkey
Method: (§1) Cytotoxicity of the compounds was determined using the acid phosphatase (ACP) assay. Vero E6 cells were seeded onto a 96-well culture plate at a concentration of 2 × 10^4 cells per well. Next day, the medium was removed, and each well was washed once with PBS before adding DMEM containing 2% FBS and different concentrations of test compounds. After 3 days of incubation at 37 °C, the medium was removed, and each well was washed once with PBS. Next, a buffer containing 0.1 M sodium acetate (pH = 5.0), 0.1% Triton X-100, and 5 mM p-nitrophenyl phosphate was added. After incubating at 37 °C for 30 min, 1 N NaOH was added to stop the reaction. The absorbance was measured using an ELISA reader (VERSAmax, Molecular Devices, Sunnyvale, CA) at a wavelength of 405 nm. The percentage of cell viability was calculated by using the following formula: Viability % = [ (At/As) × 100]%, where At and As represent the absorbance of the test compound and the solvent control, respectively. […] For each compound, the measurements were repeated at least 3 times to determine the averaged CC50 values and standard deviation.

wild-type SARS-CoV-2 = assay: microbe, parasite or virus in culture; format: cell-based; conditions: Severe acute respiratory syndrome coronavirus 2, read-out: EC50 wild-type strain
recombinant ACE2 and RBD = conditions: at 60 μM; cited from earlier work
Vero E6 cells = assay: Cytotoxicity, acid phosphatase (ACP) assay; format: cell-based; conditions: Vero E6, 3 days
Method: as §1

[4] = 1.3 nM TMPRSS2, 10 μM substrate, triplicate
[5] = 35 nM 3CL^pro, 6 μM substrate, read-out: IC50 3CL^pro
[6] = one entry for PL^pro, the three activities not told apart, read-out: IC50 PL^pro
[7] = Severe acute respiratory syndrome coronavirus 2, Vero C1008, Delta strain, plaque reduction, Vero E6, entry treatment, read-out: EC50 δ
[8] = Severe acute respiratory syndrome coronavirus 2, Vero C1008, Omicron BA.5, plaque reduction, Vero E6, read-out: EC50 ο BA.5 (converted)
[9] = substrate ISG15-AMC, third of three values, read-out: IC50 PL^pro, deISGylation activity
[10] = substrate Ub-AMC, second of three values, read-out: IC50 PL^pro, deubiquitinating activity
[11] = substrate Z-Arg-Leu-Arg-Gly-Gly-AMC, first of three values, read-out: IC50 PL^pro, proteolytic activity

T1 sequence (P07711 114-333): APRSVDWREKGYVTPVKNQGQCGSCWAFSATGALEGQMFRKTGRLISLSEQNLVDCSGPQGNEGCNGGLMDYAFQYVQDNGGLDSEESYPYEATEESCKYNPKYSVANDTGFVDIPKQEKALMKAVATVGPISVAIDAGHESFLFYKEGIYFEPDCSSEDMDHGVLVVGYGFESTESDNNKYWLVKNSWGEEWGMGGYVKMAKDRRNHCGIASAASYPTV

Compound	IC50 (cathepsin L; triplicate, mean ± SD)	IC50 (furin; triplicate, mean ± SD)	IC50 (TMPRSS2; [4])	IC50 (SARS-CoV-2 3CL^pro; [5])	IC50 (SARS-CoV-2 PL^pro; [6])	IC50 (SARS-CoV-2 RdRp)	EC50 [1, 7]	EC50 [2, 8]	CC50 at 3 days [3]	IC50 (SARS-CoV-2 PL^pro; [9])	IC50 (SARS-CoV-2 PL^pro; [10])	IC50 (SARS-CoV-2 PL^pro; [11])	other results
O=C(O[C@@H]1Cc2c(O)cc(O)cc2O[C@@H]1c1cc(O)c(=O)c2c(O)c(O)c(O)cc2c1)c1cc(O)c(O)c(O)c1 [epitheaflagallin-3-O-gallate]	> 100 µM	55 ± 6.5 µM	35.3 ± 2.7 µM	31.2 ± 2.6 µM	> 100 µM	> 100 µM	0.5 ± 0.1 µM	0.6 µM	109 ± 45.3 µM	–	–	–	–
O=C(O[C@@H]1Cc2c(O)cc(O)cc2O[C@@H]1c1cc(O)c(=O)c2c(O)c(O)cc([C@H]3Oc4cc(O)cc(O)c4C[C@H]3OC(=O)c3cc(O)c(O)c(O)c3)c2c1)c1cc(O)c(O)c(O)c1 [TF3, theaflavin-3,3′-digallate]	–	–	–	–	–	–	–	–	> 100 µM	–	–	–	EC50 ([1]; Severe acute respiratory syndrome coronavirus 2, Vero C1008): 0.2 µM; EC50 ([2]; Severe acute respiratory syndrome coronavirus 2, Vero C1008, read-out: EC50 ο BA.5): 0.2 µM; EC50 (wild-type SARS-CoV-2): 0.3 µM; inhibition of the interaction between recombinant ACE2 and RBD (recombinant ACE2 and RBD): effectively inhibiting
O=c1c(O)cc([C@H]2Oc3cc(O)cc(O)c3C[C@H]2O)cc2c([C@H]3Oc4cc(O)cc(O)c4C[C@H]3O)cc(O)c(O)c12 [theaflavin]	11.1 ± 1.1 µM	> 100 µM	> 100 µM	16.1 ± 2.5 µM	–	40.2 ± 2.3 µM	7.4 ± 0.1 µM	2.2 µM	66.4 ± 3.2 µM	11.2 ± 1.3 µM	10.6 ± 0.9 µM	9.9 ± 0.9 µM	–
O=C(O[C@@H]1Cc2c(O)cc(O)cc2O[C@@H]1c1cc(O)c(O)c2c(=O)c(O)cc([C@H]3Oc4cc(O)cc(O)c4C[C@H]3O)cc12)c1cc(O)c(O)c(O)c1 [theaflavin-3′-gallate]	51.1 ± 2.2 µM	58.5 ± 6.4 µM	6.2 ± 0.6 µM	6.7 ± 0.8 µM	> 100 µM	23.2 ± 0.4 µM	0.8 ± 0.1 µM	0.4 µM	69.9 ± 12.9 µM	–	–	–	–
O=C(O[C@@H]1Cc2c(O)cc(O)cc2O[C@@H]1c1cc(O)c(=O)c2c(O)c(O)cc([C@H]3Oc4cc(O)cc(O)c4C[C@H]3O)c2c1)c1cc(O)c(O)c(O)c1 [theaflavin-3-gallate]	> 100 µM	36.7 ± 5.7 µM	48.7 ± 3 µM	8.8 ± 0.8 µM	> 100 µM	> 100 µM	0.4 µM	0.4 µM	> 100 µM	–	–	–	–
Oc1cc(O)c2c(c1)OC(c1ccc(O)c(O)c1)C(O)C2 (stereo not shown) [catechin]	> 100 µM	> 100 µM	> 100 µM	–	–	> 100 µM	> 10 µM	> 10 µM	–	17.8 ± 2.2 µM	24.6 ± 3.3 µM	18.7 ± 3.5 µM	IC50 (SARS-CoV-2 3CL^pro): > 100 µM; inhibition against 3CL^pro (SARS-CoV-2 3CL^pro; in words): no inhibition; inhibition of Delta SARS-CoV-2 ([1]; at 10 μM): did not inhibit; CC50 at 3 days ([3]; Vero E6 cells, Vero E6, 3 days, read-out: CC50): 107 µM
proanthocyanidin	–	–	–	–	–	23.4 ± 1.3 µM	–	–	–	7.3 ± 0.6 µM	3.3 ± 0.4 µM	2.4 ± 0.3 µM	IC50 (cathepsin L): > 100 µM; IC50 (furin): > 100 µM; IC50 (TMPRSS2): 47 ± 4.6 µM; IC50 (SARS-CoV-2 3CL^pro; read-out: IC50 3CL^pro): 18.4 ± 1.1 µM; EC50 ([1]; Delta strain, plaque reduction, Vero E6, entry treatment, read-out: EC50 δ): 0.5 ± 0.1 µM; EC50 ([2]; Omicron BA.5, plaque reduction, Vero E6, read-out: EC50 ο BA.5 (converted)): 0.2 µM; CC50 (Vero E6 cells): > 100 µM
